Data from US7351855B2, “Chemically defined non-polymeric valency platform molecules and conjugates thereof” (La Jolla Pharmaceutical Company, priority 1993, dated 2008).
No end group written: not given here.

Experiments:
peptide-specific pfc = experiment: pfc assay: melittin peptide-specific IgG pfc in spleens of mice primed and boosted with melittin; type: in vivo, C57BL/6 mice; conditions: Table 7
Procedure: Female C57BL/6 mice, ages 5 to 8 weeks were purchased from The Jackson Laboratory, Bar Harbor, Me. Animals were maintained and treated accordingly to National Institutes of Health guidelines.
Mice were primed by an i.p. injection containing 5 μg of melittin precipitated on alum and 2×10^9 B. pertussis (Michigan Department of Public Health, Lansing, Mich.) as an adjuvant. The mice were boosted with 5 μg of melittin, i.p., in PBS.
Sheep Red Blood Cells (SRBC) (Colorado Serum Co., Denver, Colo.) were conjugated with melittin-peptide […] using carbodiimide. Fresh SRBC (less than 2 weeks old) were washed four times with cold saline and one time with mannitol (0.35 M mannitol, 0.01 M NaCl). The SRBC were suspended in mannitol to a concentration of 10% (v/v). 100 μL of mannitol containing 30 μg of melittin peptide #3 were added to 1 mL aliquots of 10% SRBC which were then incubated on ice for 10 minutes. 100 μL of a 100 mg/mL solution of 1-ethyl-3 (3-dimethylaminopropyl)-carbodiimide HCl (EDCI) was then added and incubated on ice for 30 minutes. The SRBC were washed twice with Balanced Salt Solution (BSS) (Irvine Scientific Co, Irvine, Calif.) and resuspended to 10% (v/v). Lyophilized guinea pig complement (GIBCO, New York, N.Y.) was reconstituted with BSS and then diluted 1:3 with BSS. One mL of the diluted guinea pig complement was added to 3 mL of conjugated SRBC. Rabbit anti-mouse IgG was added to give a final dilution of 1:100 of the rabbit antiserum. This concentration was predetermined to inhibit all IgM pfc while enhancing the maximum number of IgG pfc. An equal volume of this complement/anti-mouse IgG/SRBC suspension was mixed with a cell suspension of mouse spleen cells taken from a single mouse. 50 μL of each mixture was transferred to the chambers of a Cunningham slide (three chambers per slide). The edges were then sealed with paraffin and incubated at 37° C. for one hour. The number of plaques per chamber was counted with the aid of a dissecting microscope. Each spleen suspension was also assayed using non-conjugated SRBC as a control. The number of viable cells, in each spleen cell suspension, was determined. The number of pfc per 10^6 spleen cells was determined for each chamber and the mean of the triplicates calculated. The number of pfc for non-conjugated SRBC was subtracted from the number of pfc for conjugated SRBC to determine the number of peptide-specific pfc.
Two different tolerogens were constructed to determine if the orientation of the peptide on the PEG conjugate affects its ability to induce tolerance. The peptide was covalently bound to valency platform molecule 3 through its C-terminal end to make melittin conjugate 3. Groups (3/group) of mice primed with melittin were treated, i.p., with conjugates or with saline. Five days later all of the mice, including the non-treated control group, were boosted with […] of melittin. Six days later the mice were sacrificed, their spleens were harvested and the number of peptide specific pfc determined. As-illustrated in Table 8, both orientations were effective in reducing the number of peptide-specific pfc/10^6 spleen cells in mice primed and boosted with the parent protein Melittin.
Three different conjugates, each with a different number of peptides per PEG conjugate, were constructed to determine if the ratio of peptides to PEG molecule was important. Conjugate 1 had only two peptides per PEG conjugate. Another had four peptides per PEG conjugate (Conjugate 2). The third had eight peptides per PEG conjugate (Conjugate 5). Groups (3/group) of mice primed with melittin were treated, i.p., with the different conjugates or with saline. Five days later all of the nice, including the non-treated control group, were boosted with 5 μg of melittin. Six days later, the mice were sacrificed, their spleens were harvested and the number of peptide-specific pfc determined.

[1] = test system: cultured T cell from melittin-immunized mice; experiment: Murine lymph node proliferation assay ([3H]thymidine uptake); type: cell-based, Balb/c mice; conditions: T cells from mice primed with melittin; 10, 1.0 or 0.1 μg/mL; FIG. 8
Procedure: Femal Balb/c mic (6-8 weeks old; Jackson Laboratory, Bar Harbor, Me.) were obtained and housed at the La Jolla Pharmaceutical animal facility according to National Institutes of Health guidelines. Food and water was provided ad libitum. Balb/c mice were immunized in each hind footpad with 50 μg of melittin molecule in Complete Freund's Adjuvant (CFA) (Sigma Chemical Co., St. Louis, Mo.). Popliteal lymph nodes were harvested aseptically seven days later. Lymph nodes were gently dissociated by teasing the cells through a 50 mesh sieve screen. The single cell suspension was washed in RPMI-1640 (Irvine Scientific, Irvine Calif.) containing glutamine, penicillin and streptomycin. 5×10^5 cells in RPMI medium supplemented with 10% fetal bovine serum (FCS) in quadruplicate wells of round bottom 96-well Corning microtitration plates were-cultured with melittin or a melittin peptide at 10, 1.0 or 0.1 μg/mL. Cells in the positive control wells were cultured with murine interleukin 2 (IL-2) at 100 or 50 U/mL, PHA (phytohemagglutinin) at 1 μg/mL. The negative control wells contained lymph node cells in RPM-1640 and 10% FCS. The cells were cultured for 4 days in a 37° C. incubator with 5% CO2. Each well was pulsed with 1 μCi of [^3H]thymidine (ICN Biochemicals, Costa Mesa, Calif.) for an additional 18 hours. Cells were harvested onto a glass fiber filter mat using a semiautomatic cell harvester (Scatron, Sterling, Va.). Incorporation of [^3H]thymidine was determined by liquid scintillation. The results were expressed as average counts per minute.

Row | Compound | T cell proliferation (in words) [1] | other results
1 | N,N′-Bis-(3,5-bis-(iodoacetamido)benzoyl) derivative of α,ω-bis-(N-2-aminoethylcarbamoyl)polyethyleneglycol [Compound 3] | – | % Reduction (peptide-specific pfc; 250 μg/mouse i.p.): 67.3%; Peptide specific pfc per 10^6 spleen cells (Mean and S.D.) (peptide-specific pfc; 250 μg/mouse i.p.): 957 (298) pfc per 10^6 spleen cells; % Reduction (peptide-specific pfc; 500 μg/mouse i.p.): 83.3%; Peptide specific pfc per 10^6 spleen cells (Mean and S.D.) (peptide-specific pfc; 500 μg/mouse i.p.): 489 (one mouse) pfc per 10^6 spleen cells; % Reduction (peptide-specific pfc; 1000 μg/mouse i.p.): 86.8%; Peptide specific pfc per 10^6 spleen cells (Mean and S.D.) (peptide-specific pfc; 1000 μg/mouse i.p., boost 5 days later, spleens 6 days after boost): 386 (85) pfc per 10^6 spleen cells
2 | IKRKRQQG [Melittin Peptide #1] | no significant T cell proliferation | –
3 | CC[C@H](C)[C@H](NC(=O)CN)C(=O)NCC(=O)N[C@@H](C)C(=O)N[C@H](C(=O)N[C@@H](CC(C)C)C(=O)N[C@@H](CCCCN)C(=O)N[C@H](C(=O)N[C@@H](CC(C)C)C(=O)N[C@H](C(=O)N[C@H](C(=O)NCC(=O)N[C@@H](CC(C)C)C(=O)N1CCC[C@H]1C(=O)N[C@@H](C)C(=O)N[C@@H](CC(C)C)C(=O)N[C@H](C(=O)N[C@@H](CO)C(=O)N[C@@H](Cc1c[nH]c2ccccc12)C(=O)N[C@H](C(=O)N[C@@H](CCCCN)C(=O)N[C@@H](CCCNC(=N)N)C(=O)N[C@@H](CCCCN)C(=O)N[C@@H](CCCNC(=N)N)C(=O)N[C@@H](CCC(N)=O)C(=O)N[C@@H](CCC(N)=O)C(N)=O)[C@@H](C)CC)[C@@H](C)CC)[C@@H](C)O)[C@@H](C)O)C(C)C)C(C)C [Melittin, reference compound] | showed T cell proliferation | –
4 | WIKRKRQQG [Melittin Peptide #2] | no significant T cell proliferation | –
5 | Cys-Ile-Ser-Trp-Ile-Lys-Arg-Lys-Arg-Gln-Gln-Gly (CISWIKRKRQQG; printed: Cys-Ile-Ser-Trp-Ile-Lys-Arg-Lys-Arg-Gln-Gln-Gly) [Melittin Peptide #5] | showed T cell proliferation | –
6 | SWIKRKRQQG [Melittin Peptide #3] | showed T cell proliferation | –
7 | Ile-Ser-Trp-Ile-Lys-Arg-Lys-Arg-Gln-Gln-Gly (ISWIKRKRQQG; printed: Ile-Ser-Trp-Ile-Lys-Arg-Lys-Arg-Gln-Gln-Gly) [Melittin Peptide #4] | showed T cell proliferation | –
